Patent publication US10112929B2, “Lactams as inhibitors of rock” (BRISTOL-MYERS SQUIBB COMPANY, priority 2015, dated 2018)

target: ROCK2 (Homo sapiens (Human), UniProt O75116)
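Note: rho kinase enzyme reaction halted with EDTA, phospho- and non-phospho peptide separated for read-out, kinase activity inhibition derived across a dose-response series, DMSO under 2%.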

ROCK2, sequence (O75116 whole entry, species assumed): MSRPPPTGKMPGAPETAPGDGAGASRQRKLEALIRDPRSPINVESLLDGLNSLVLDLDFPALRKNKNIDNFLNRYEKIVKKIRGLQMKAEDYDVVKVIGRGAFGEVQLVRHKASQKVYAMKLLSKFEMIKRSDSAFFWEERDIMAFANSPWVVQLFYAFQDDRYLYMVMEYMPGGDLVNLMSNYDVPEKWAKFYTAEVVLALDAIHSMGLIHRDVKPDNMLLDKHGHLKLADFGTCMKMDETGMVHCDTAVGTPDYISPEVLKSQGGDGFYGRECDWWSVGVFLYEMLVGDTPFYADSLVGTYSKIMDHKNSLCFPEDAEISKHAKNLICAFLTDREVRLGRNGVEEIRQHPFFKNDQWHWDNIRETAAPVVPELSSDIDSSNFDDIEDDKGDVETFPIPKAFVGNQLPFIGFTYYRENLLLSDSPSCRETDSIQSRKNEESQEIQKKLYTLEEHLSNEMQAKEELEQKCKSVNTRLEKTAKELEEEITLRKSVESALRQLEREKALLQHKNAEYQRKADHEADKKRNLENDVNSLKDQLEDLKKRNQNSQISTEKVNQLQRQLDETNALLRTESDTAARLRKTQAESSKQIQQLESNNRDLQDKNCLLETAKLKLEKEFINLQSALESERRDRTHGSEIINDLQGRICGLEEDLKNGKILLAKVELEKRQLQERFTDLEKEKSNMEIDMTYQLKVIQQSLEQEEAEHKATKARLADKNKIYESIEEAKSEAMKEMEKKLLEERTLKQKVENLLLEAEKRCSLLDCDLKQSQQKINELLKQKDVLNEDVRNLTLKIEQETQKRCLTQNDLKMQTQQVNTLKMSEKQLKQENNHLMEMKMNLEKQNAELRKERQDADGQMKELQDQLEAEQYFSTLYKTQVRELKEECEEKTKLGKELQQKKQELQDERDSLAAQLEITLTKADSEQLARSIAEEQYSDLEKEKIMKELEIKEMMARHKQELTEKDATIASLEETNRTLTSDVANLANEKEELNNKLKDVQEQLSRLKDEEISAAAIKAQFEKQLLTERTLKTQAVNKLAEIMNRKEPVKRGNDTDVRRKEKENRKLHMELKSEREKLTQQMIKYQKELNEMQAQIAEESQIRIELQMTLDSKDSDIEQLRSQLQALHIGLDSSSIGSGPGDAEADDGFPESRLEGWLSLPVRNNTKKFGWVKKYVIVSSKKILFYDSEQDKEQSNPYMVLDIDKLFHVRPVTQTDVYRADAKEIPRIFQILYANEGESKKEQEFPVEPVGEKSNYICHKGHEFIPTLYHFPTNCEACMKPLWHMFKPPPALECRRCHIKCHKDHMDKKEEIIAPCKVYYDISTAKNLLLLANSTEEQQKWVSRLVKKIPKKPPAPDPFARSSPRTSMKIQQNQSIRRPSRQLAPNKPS

SMILES | IC50 [nM]
COc1cc(NC2CCN(c3ccc(-c4cn[nH]c4)c(OCCN(C)C)c3)C2=O)ccc1F (racemic) [Example 347, 1-(3-(2-(dimethylamino)ethoxy)-4-(1H-pyrazol-4-yl)phenyl)-3-((4-fluoro-3-methoxyphenyl)amino)pyrrolidin-2-one] | 100 to 2200
COc1cccc(NC2CCN(c3ccc(-c4cn[nH]c4)cc3Cl)C2=O)c1 (single isomer, unassigned) [Example 167, 1-(2-chloro-4-(1H-pyrazo1-4-yl)phenyl)-3 ((3-methoxyphenyl)amino)pyrrolidin-2-one] | 100 to 2200
COc1ccc(NC2CCN(c3ccc(-c4cn[nH]c4)cc3)C2=O)cc1F (single isomer, unassigned) [Example 14, 1-(4-(1H-pyrazol-4-yl)phenyl)-3-((3-fluoro-4-methoxyphenyl)amino)pyrrolidin-2-one] | 100 to 2200
COc1ccc(N[C@@H]2CCN(c3ccc(-c4cn[nH]c4)cc3)C2=O)c(OC)c1 [Example 395, (R)-1-(4-(1H-pyrazol-4-yl)phenyl)-3-((2,4-dimethoxyphenyl)amino)pyrrolidin-2-one] | 100 to 2200
CCOc1cc(N2CCC(Nc3cc(OC)ccc3F)C2=O)ccc1-c1cn[nH]c1 (single isomer, unassigned) [Example 41, 1-(3-ethoxy-4-(1H-pyrazol-4-yl)phenyl)-3-((2-fluoro-5-methoxyphenyl)amino)pyrrolidin-2-one] | 100 to 2200
COc1cc(F)cc(NC2CCN(c3ccc(-c4cn[nH]c4)c(Cl)c3)C2=O)c1 (single isomer, unassigned) [Example 159, 1-(3-chloro-4-(1H-pyrazol-4-yl)phenyl)-3 ((3-fluoro-5-methoxyphenyl)amino) pyrrolidin-2-one] | 100 to 2200
COc1cccc(OC2CCN(c3ccc(-c4ccc5cn[nH]c5c4)c(OC)n3)C2=O)c1 (single isomer, unassigned) [Example 125, 1-(5-(1H-indazol-6-yl)-6-methoxypyridin-2-yl)-3-(3-methoxyphenoxy)pyrrolidin-2-one] | 100 to 2200
COc1ccc(NC2CCN(c3ccc(-c4cn[nH]c4)cc3F)C2=O)cc1F (single isomer, unassigned) [Example 345, 1-(2-fluoro-4-(1H-pyrazol-4-yl)phenyl)-3-((3-fluoro-4-methoxyphenyl)amino) pyrrolidin-2-one] | 100 to 2200
COCc1cc(N2CCC(Nc3ccc(F)c(OC)c3)C2=O)ccc1-c1cn[nH]c1 (single isomer, unassigned) [Example 182, 3-((4-fluoro-3-methoxyphenyl)amino)-1-(3-(methoxymethyl)-4-(1H-pyrazol-4-yl)phenyl)pyrrolidin-2-one] | 100 to 2200
COc1cc(F)cc(NC2CCN(c3ccc(-c4cn[nH]c4)cc3Cl)C2=O)c1 (single isomer, unassigned) [Example 169, 1-(2-chloro-4-(1H-pyrazol-4-yl)phenyl)-3 ((3-fluoro-5-methoxyphenyl)amino) pyrrolidin-2-one] | 100 to 2200
COc1cc(NC2CCN(c3ccc(-c4cn[nH]c4)c(OC)c3)C2=O)cc(OC)c1 (single isomer, unassigned) [Example 140, 3-((3,5-dimethoxyphenyl)amino)-1-(3-methoxy-4-(1H-pyrazol-4-yl)phenyl) pyrrolidin-2-one] | 100 to 2200
COc1cccc(NC2CCN(c3ccc(-c4cn[nH]c4)c(C(F)(F)F)c3)C2=O)c1 (single isomer, unassigned) [Example 368, 1-(4-(1H-pyrazol-4-yl)-3-(trifluoromethyl)phenyl)-3-((3-methoxyphenyl)amino) pyrrolidin-2-one] | 100 to 2200

The remaining lines, values ahead:

IC50 [nM] | SMILES
100 to 2200 | COc1ccc(NC2CCN(c3ccc(-c4cn[nH]c4)c(OC)c3)C2=O)cc1F (single isomer, unassigned) [Example 142, 3-((3-fluoro-4-methoxyphenyl)amino)-1-(3-methoxy-4-(1H-pyrazol-4-yl)phenyl) pyrrolidin-2-one]
< 10 | O=C1C(Nc2ccccc2)CCN1c1ccc(-c2cn[nH]c2)c(F)c1 (single isomer, unassigned) [Example 44, 1-(3-fluoro-4-(1H-pyrazol-4-yl)phenyl)-3-(phenylamino)pyrrolidin-2-one]
< 10 | COc1cc(NC2CCN(c3ccc(-c4cn[nH]c4)c(OC)n3)C2=O)ccc1F (single isomer, unassigned) [Example 208, 3-((4-fluoro-3-methoxyphenyl)amino)-1-(6-methoxy-5-(1H-pyrazol-4-yl)pyridin-2-yl)pyrrolidin-2-one]
10 to 100 | COc1cc(NC2CCN(c3ccc(-c4cn[nH]c4)cn3)C2=O)ccc1F (single isomer, unassigned) [Example 84, 1-(5-(1H-pyrazol-4-yl)pyridin-2-yl)-3-((4-fluoro-3-methoxyphenyl)amino)pyrrolidin-2-one]
10 to 100 | COc1cc(F)cc(NC2CCN(c3ccc(-c4cn[nH]c4)cn3)C2=O)c1 (single isomer, unassigned) [Example 87, 1-(5-(1H-pyrazol-4-yl)pyridin-2-yl)-3-((3-fluoro-5-methoxyphenyl)amino)pyrrolidin-2-one]
10 to 100 | COc1cccc(NC2CCN(c3ccc(-c4cn[nH]c4)cc3F)C2=O)c1 (single isomer, unassigned) [Example 329, 1-(2-fluoro-4-(1H-pyrazol-4-yl)phenyl)-3-((3-methoxyphenyl)amino)pyrrolidin-2-one]
10 to 100 | CNc1nc(N2CCC(Nc3cccc(OC)c3)C2=O)ccc1-c1cn[nH]c1 (single isomer, unassigned) [Example 254, 3-((3-methoxyphenyl)amino)-1-(6-(methylamino)-5-(1H-pyrazol-4-yl)pyridin-2-yl)pyrrolidin-2-one]
10 to 100 | COc1cc(N2CCC(Nc3c(F)cccc3OC)C2=O)ccc1-c1cn[nH]c1 (single isomer, unassigned) [Example 136, 3-((2-fluoro-6-methoxyphenyl)amino)-1-(3-methoxy-4-(1H-pyrazol-4-yl)phenyl) pyrrolidin-2-one]
10 to 100 | COc1cccc(NC2CCN(c3ccc(-c4cn[nH]c4)nc3)C2=O)c1 (single isomer, unassigned) [Example 298, 1-(6-(1H-pyrazol-4-yl)pyridin-3-yl)-3-((3-methoxyphenyl)amino)pyrrolidin-2-one]
< 10 | COc1nc(N2CCC(Nc3cccc(OC(F)F)c3)C2=O)ccc1-c1cn[nH]c1 (single isomer, unassigned) [Example 221, 3-((3-(difluoromethoxy)phenyl)amino)-1-(6-methoxy-5-(1H-pyrazol-4-yl)pyridin-2-yl)pyrrolidin-2-one]
< 10 | COc1nc(N2CCC(Nc3cccc(OCC4CC4)c3)C2=O)ccc1-c1cn[nH]c1 (single isomer, unassigned) [Example 215, 3-((3-(cyclopropylmethoxy)phenyl)amino)-1-(6-methoxy-5-(1H-pyrazol-4-yl)pyridin-2-yl)pyrrolidin-2-one]
< 10 | COc1cccc(NC2CCN(c3ccc(-c4cn[nH]c4)cc3)C2=O)c1 (single isomer, unassigned) [Example 29, 1-(4-(1H-pyrazol-4-yl)phenyl)-3-((3-methoxyphenyl)amino)pyrrolidin-2-one]
10 to 100 | COc1cc(NC2CCN(c3ccc(-c4cn[nH]c4)c(C)n3)C2=O)ccc1F (single isomer, unassigned) [Example 195, 3-((4-fluoro-3-methoxyphenyl)amino)-1-(6-methyl-5-(1H-pyrazol-4-yl)pyridin-2-yl)pyrrolidin-2-one]
